In brackets after ≈: the same amount, converted by molar mass. Where two headings read alike, the source gives them in different places.

The text below walks through data of PMC8300687, “A Fine-Tuned Lipophilicity/Hydrophilicity Ratio Governs Antibacterial Potency and Selectivity of Bifurcated Halogen Bond-Forming NBTIs” (Antibiotics, 2021).

One data set addresses T1, Human topoisomerase IIα (Homo sapiens, UniProt P11388).
T1 construct: purchased Inspiralis (Norwich, UK)
Nature of the data set: Human topoisomerase II Alpha Relaxation High Throughput Plate assay. The note with it: 0.5 h; residual activity of the enzyme at compound concentration 10 μM, mean ± SD; read-out: Human Topo II (% RA). In kind it is biochemical. Put shortly:
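Triplex-capture relaxation plate assay: reactions stopped with TF buffer (50 mM NaOAc pH 4.7, 50 mM NaCl, 50 mM MgCl2) for 30 min biotin-oligo–plasmid triplex formation, bound plasmid stained with Diamond dye. Compounds screened at 10 μM; values are mean ± SD % residual enzyme activity from two independent measurements.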

A further data set has as its system S. aureus (ATCC 29213). Nature of the data set: MIC broth microdilution, S. aureus ATCC 29213. It counts as cell-based. The note with it: for MIC: Staphylococcus aureus. The method, boiled down: (§1)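 MIC is the lowest compound dilution without visible turbidity. M. avium was tested in Middlebrook 7H9 with 5% OADC for ≥10 days; other strains at 10^5 CFU/mL final in cation-adjusted Mueller Hinton broth with TES, 18–20 h at 35 °C, following CLSI and EUCAST microdilution guidance.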
(Broth dilution looks for growth in wells or tubes with falling amounts of substance.)

Another data set concerns MRSA. Description: MIC broth microdilution, MRSA. It counts as cell-based, methicillin-resistant S. aureus. The note with it: Staphylococcus aureus, read-out: MIC MRSA. The method, boiled down:
as §1

The next data set relates to MRSA (QA-11.7). Description: MIC broth microdilution, MRSA QA-11.7. In kind it is cell-based, methicillin-resistant S. aureus. The note with it: Staphylococcus aureus, 20 h, read-out: MIC MRSA (QA-11.7). Put shortly: as §1
A further data set concerns MRSA (QA-11.6). Description: MIC broth microdilution, MRSA QA-11.6. In kind it is cell-based, methicillin-resistant S. aureus. The note with it: Staphylococcus aureus, resistant to cefoxitin, gentamicin, sulfamethoxazole, tetracycline, read-out: MIC MRSA (QA-11.6). The method, boiled down:
(§2)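 Broth microdilution per CLSI/EUCAST: 0.5 McFarland suspensions diluted in cation-adjusted Mueller Hinton broth with TES to a final 10^5 CFU/mL, mixed with compounds in DMSO, incubated 18–20 h at 35 °C. Mycobacterium in Middelbrook 7H9 + 5% OADC, ≥10 days. MIC read visually as lowest dilution without turbidity.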

In the next data set the test system is MRSA (QA-11.4). Nature of the data set: MIC broth microdilution, MRSA QA-11.4. The note with it: Staphylococcus aureus, 20 h, resistant to cefoxitin, read-out: MIC MRSA (QA-11.4). It counts as cell-based, methicillin-resistant S. aureus. The method, boiled down:
as §2

A further data set relates to MRSA (QA-11.2). Nature of the data set: MIC broth microdilution, MRSA QA-11.2. The note with it: Staphylococcus aureus, 20 h, resistant to cefoxitin, chloramphenicol, clindamycin, linezolid, tetracycline, thiamulin, trimethoprim, read-out: MIC MRSA (QA-11.2). In kind it is cell-based, methicillin-resistant S. aureus. The method, boiled down:
as §1

The subject of another data set is S. pneumoniae (QA-10/02). Nature of the data set: MIC broth microdilution, S. pneumoniae. It counts as cell-based. The note with it: Streptococcus pneumoniae. Put shortly: as §2
The next data set has as its system E. coli (QA-11.8). Description: MIC broth microdilution, E. coli QA-11.8. In kind it is cell-based. The note with it: Escherichia coli, 20 h; read-out: MIC E. coli (QA-11.8). The method, boiled down: as §1
In the next data set the test system is E. coli (QA-11.7). Nature of the data set: MIC broth microdilution, E. coli QA-11.7. The note with it: Escherichia coli, 20 h; multi-resistant isolate (ampicillin, azithromycin, cefotaxime, ertapenem, imipenem and others); read-out: MIC E. coli (QA-11.7). In kind it is cell-based. Put shortly: as §2
The subject of another data set is E. coli D22. Description: MIC broth microdilution, E. coli D22. In kind it is cell-based. The note with it: Escherichia coli. Put shortly:
as §1

In data set [1] the test system is S. alachua RDK 030c (QA-1482/04). Description: MIC broth microdilution, S. alachua. In kind it is cell-based. The note with it: Salmonella; read-out: MIC S. alachua RDK 030c (QA-1482/04). Put shortly:
as §2

The test system of data set [2] is C. jejuni RDK 135 (ATCC 33560). Nature of the data set: MIC broth microdilution, C. jejuni. It counts as cell-based. The note with it: Campylobacter jejuni, ATCC33560; read-out: MIC C. jejuni RDK 135 (ATCC 33560). Put shortly:
as §1

The test system of the next data set is M. smegmatis. Nature of the data set: MIC, M. smegmatis. In kind it is cell-based, Mycobacterium smegmatis. The note with it: Mycolicibacterium smegmatis; read-out: MIC M. smegmatis. Put shortly: as §2
The subject of another data set is M. avium. Description: MIC, M. avium. The note with it: Mycobacterium avium; read-out: MIC M. avium. It counts as cell-based. Put shortly:
as §1

Data set [3] in a line: Equilibrium solubility at pH 6.8. The note with it: for solubility thermodynamic at 24 h: phosphate buffered saline, 37 °C, pH 6.8, aqueous buffer, thermodynamic from solid. Put shortly:
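Concentrations in solution were read by compound-specific isocratic HPLC calibrated with 30–90 mg/L external standards, after 5 min homogenization and 24 h shaking at 1200 RPM, 37 °C.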

Another data set can be described thus: in vitro. The note with it: PAMPA. Put shortly:
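Pre-coated three-layer PAMPA plate; donor in bottom well, pH 7.4 PBS acceptor on top, 4 h at 37 °C. Donor and acceptor quantified by isocratic HPLC peak areas, 100-fold diluted initial donor as external reference; permeability calculated from peak areas corrected for dilution and injection volume.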
In general terms: PAMPA measures passive passage across an artificial lipid membrane.

Where [4] appears, read: ATCC29213, read-out: MIC S. aureus (ATCC 29213).
[5] abbreviates: ATCC29213, S. aureus ATCC 29213, read-out: S. aureus MIC (converted).
[6] abbreviates: D22, mutation in the lpxC gene that increases membrane permeability, read-out: MIC E. coli D22.

T1 sequence (P11388 whole entry): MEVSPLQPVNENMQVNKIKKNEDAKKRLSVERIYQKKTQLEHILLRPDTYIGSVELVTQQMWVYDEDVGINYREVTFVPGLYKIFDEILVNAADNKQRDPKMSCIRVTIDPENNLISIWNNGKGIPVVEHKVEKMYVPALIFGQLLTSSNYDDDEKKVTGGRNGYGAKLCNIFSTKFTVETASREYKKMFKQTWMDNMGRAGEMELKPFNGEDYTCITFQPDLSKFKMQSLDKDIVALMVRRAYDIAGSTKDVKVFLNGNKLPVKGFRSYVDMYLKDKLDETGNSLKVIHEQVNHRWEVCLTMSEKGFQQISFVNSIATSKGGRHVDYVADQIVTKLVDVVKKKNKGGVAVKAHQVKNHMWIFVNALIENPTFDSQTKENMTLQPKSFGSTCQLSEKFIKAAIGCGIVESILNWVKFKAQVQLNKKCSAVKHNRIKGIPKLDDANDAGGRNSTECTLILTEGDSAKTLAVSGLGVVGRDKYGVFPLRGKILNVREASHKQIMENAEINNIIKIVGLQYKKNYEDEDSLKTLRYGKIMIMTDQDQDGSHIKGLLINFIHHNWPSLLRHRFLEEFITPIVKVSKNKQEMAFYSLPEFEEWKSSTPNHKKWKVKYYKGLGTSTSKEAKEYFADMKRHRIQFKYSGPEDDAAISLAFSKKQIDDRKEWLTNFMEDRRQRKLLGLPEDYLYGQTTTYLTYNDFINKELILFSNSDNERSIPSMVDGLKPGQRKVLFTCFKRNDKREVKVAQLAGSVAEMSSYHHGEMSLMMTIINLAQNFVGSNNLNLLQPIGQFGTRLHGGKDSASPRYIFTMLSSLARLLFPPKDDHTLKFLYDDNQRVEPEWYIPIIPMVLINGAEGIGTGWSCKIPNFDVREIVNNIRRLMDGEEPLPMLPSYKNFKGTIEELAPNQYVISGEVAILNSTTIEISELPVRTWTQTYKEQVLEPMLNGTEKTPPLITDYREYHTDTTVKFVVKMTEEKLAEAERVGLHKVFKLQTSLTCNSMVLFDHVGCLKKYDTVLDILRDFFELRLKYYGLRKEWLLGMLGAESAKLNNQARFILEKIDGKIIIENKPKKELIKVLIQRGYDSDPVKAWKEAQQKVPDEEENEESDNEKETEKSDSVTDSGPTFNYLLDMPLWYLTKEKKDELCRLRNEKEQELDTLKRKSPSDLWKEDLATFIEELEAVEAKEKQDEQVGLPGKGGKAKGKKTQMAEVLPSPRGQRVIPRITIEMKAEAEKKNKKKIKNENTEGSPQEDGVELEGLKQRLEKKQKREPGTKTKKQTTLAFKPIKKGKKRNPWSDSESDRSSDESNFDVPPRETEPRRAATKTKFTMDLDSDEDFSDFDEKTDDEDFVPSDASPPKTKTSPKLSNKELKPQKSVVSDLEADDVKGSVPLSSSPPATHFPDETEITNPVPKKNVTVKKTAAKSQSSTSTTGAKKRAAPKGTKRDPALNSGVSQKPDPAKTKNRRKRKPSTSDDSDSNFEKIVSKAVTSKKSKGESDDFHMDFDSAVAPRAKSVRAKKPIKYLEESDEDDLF

As a reminder, the solubility (thermodynamic) is solubility found after equilibrating the solid with the medium. A word on the Papp: it is the rate of passage across a membrane or cell layer, normalised by area and donor concentration. Consider `COc1ccc2nccc(CCN3CCC(NCc4ccc(I)cc4)CC3)c2n1` [Compound 15], for which the remaining activity at 10 µM on Human topoisomerase IIα amounted to 88.3 ± 3.33%. Also, in the data set on S. aureus (ATCC 29213) (S. aureus ATCC 29213), the “S. aureus MIC in molar” value is recorded as 0.016 µM. Further, the MIC was 0.01 µM with S. aureus (ATCC 29213) (ATCC29213, 20 h, S. aureus ATCC 29213, read-out: S. aureus MIC (converted)); 0.0078 µg/mL in the data set with S. aureus (ATCC 29213) (setting [4]); 0.0078 µg/mL (≈ 0.0155 µM) in the data set on MRSA; 0.0078 µg/mL (≈ 0.0155 µM) with MRSA (QA-11.7); 0.0312 µg/mL (≈ 0.0622 µM) with MRSA (QA-11.6); 0.0625 µg/mL (≈ 0.124 µM) in the data set on MRSA (QA-11.4). The MIC in the data set on MRSA (QA-11.2) was determined as 0.0312 µg/mL (≈ 0.0622 µM); with S. pneumoniae (QA-10/02), 0.015 µg/mL (≈ 0.0299 µM); in the data set on E. coli (QA-11.8), 0.25 µg/mL (≈ 0.498 µM); in the data set on E. coli (QA-11.7), 1 µg/mL (≈ 1.99 µM); in the data set with E. coli D22 (D22, read-out: MIC E. coli D22), 0.125 µg/mL (≈ 0.249 µM); in data set [1] it was 8 µg/mL (≈ 15.9 µM). In addition, the MIC stood at 0.015 µg/mL (≈ 0.0299 µM) in data set [2], 0.015 µg/mL (≈ 0.0299 µM) in the data set with M. smegmatis and 1 µg/mL (≈ 1.99 µM) with M. avium. The molecule also had a solubility (thermodynamic) at 24 h in data set [3] of 184 µg/mL (≈ 366 µM). Besides, the values for the Papp at 4 h in the data set “in vitro” and in the data set “in vitro” (pH 7.4) were > 2.7 ×10⁻⁶ cm/s and 39.8 ×10⁻⁶ cm/s, respectively.

In the case of `COc1ccc2nccc(CCN3CCC(NCc4nc5ccccc5n4C)CC3)c2n1` [Compound 3, 1-(2-(6-Methoxy-1,5-naphthyridin-4-yl)ethyl)-N-((1-methyl-1H-benzo[d]imidazol-2-yl)methyl)piperidin-4-amine], the remaining activity at 10 µM at Human topoisomerase IIα was 94.7 ± 4.82%. Moreover, the MIC in the data set with S. aureus (ATCC 29213) (setting [5]) was 2.32 µM; in the data set with S. aureus (ATCC 29213) (setting [4]), 1 µg/mL; in the data set with MRSA, 2 µg/mL (≈ 4.65 µM); in the data set on MRSA (QA-11.7) it was 8 µg/mL (≈ 18.6 µM); in the data set with MRSA (QA-11.6), 2 µg/mL (≈ 4.65 µM); with MRSA (QA-11.4) it was 4 µg/mL (≈ 9.29 µM). In addition, the MIC with MRSA (QA-11.2) was 4 µg/mL (≈ 9.29 µM); in the data set on S. pneumoniae (QA-10/02), 2 µg/mL (≈ 4.65 µM); in the data set with E. coli (QA-11.8), 64 µg/mL (≈ 149 µM); with E. coli (QA-11.7) it was 64 µg/mL (≈ 149 µM); in the data set with E. coli D22 (setting [6]) it was > 128 µg/mL; in data set [1] it was > 128 µg/mL. The MIC in [2] is 1 µg/mL (≈ 2.32 µM); with M. smegmatis, 4 µg/mL (≈ 9.29 µM); in the data set on M. avium it was > 128 µg/mL. Further, the thermodynamic solubility at 24 h in data set [3] was 349 µg/mL (≈ 811 µM). Besides, the Papp at 4 h was > 2.7 ×10⁻⁶ cm/s in the data set “in vitro” and 5.4 ×10⁻⁶ cm/s in the data set “in vitro” (pH 7.4).

Turning to `C=CCn1cc(CNC2CCN(CCc3ccnc4ccc(OC)nc34)CC2)cn1` [Compound 10, N-((1-Allyl-1H-pyrazol-4-yl)methyl)-1-(2-(6-methoxy-1,5-naphthyridin-4-yl)ethyl)piperidin-4-amine], the remaining activity at 10 µM on Human topoisomerase IIα worked out at 95.7 ± 6.42%. Besides, the MIC with S. aureus (ATCC 29213) (setting [5]) is 4.92 µM; with S. aureus (ATCC 29213) (setting [4]), 2 µg/mL; in the data set on MRSA, 2 µg/mL (≈ 4.92 µM); in the data set on MRSA (QA-11.7), 4 µg/mL (≈ 9.84 µM); in the data set with MRSA (QA-11.6), 4 µg/mL (≈ 9.84 µM); in the data set with MRSA (QA-11.4), 4 µg/mL (≈ 9.84 µM). Moreover, the MIC with MRSA (QA-11.2) came out at 4 µg/mL (≈ 9.84 µM); with S. pneumoniae (QA-10/02) it was 1 µg/mL (≈ 2.46 µM); in the data set with E. coli (QA-11.8) it was 16 µg/mL (≈ 39.4 µM); with E. coli (QA-11.7), 4 µg/mL (≈ 9.84 µM); with E. coli D22 (setting [6]), 8 µg/mL (≈ 19.7 µM); in data set [1], 128 µg/mL (≈ 315 µM). Moreover, the MIC is 8 µg/mL (≈ 19.7 µM) in [2], ≤ 1 µg/mL with M. smegmatis and > 128 µg/mL in the data set with M. avium. The “solubility at pH 6.8 in words” value in [3] (pH 6.8, single-dose in 500 mL) was “soluble at this pH in any conceivable single-dose”. Further, the solubility (thermodynamic) at 24 h in data set [3] amounted to 5700 µg/mL (≈ 14000 µM). For the same molecule, the figures for the Papp at 4 h in “in vitro” and in “in vitro” (pH 7.4) were > 2.7 ×10⁻⁶ cm/s and 4.1 ×10⁻⁶ cm/s, respectively.
